Source: patent US20090162313A1, “High-Molecular Weight Conjugate of Podophyllotoxins” (priority 2006, published 2009)

Experiments:
[1] = system: Mouse colon cancer, Colon 26; assay: Antitumor effect of compound 1, subcutaneously transplanted tumor, relative tumor volume; type: in vivo; conditions: 90 mg/kg once i.v., female CDF1 mice
Procedure: (§1) Mouse colon cancer, Colon 26, maintained by serial subcutaneous subculture in mice, was minced into about 2-mm square fragments, and the fragments were subcutaneously transplanted on the dorsal part of female CDF1 mice with a trocar. […] The control group means a group to which the drug was not administered. Compound 1 was dissolved in a 5% glucose solution for injection and used. As for […] injection (manufactured by Nippon Kayaku Co., Ltd.) was diluted with a 5% glucose solution for injection and used. After the administration, the major axis (L mm) and the minor axis (W mm) of the tumor were measured using a caliper, and the tumor volume was calculated by the formula: (L×W^2)/2. […] The changes of the body weight during this period of time is also shown in Table 1 as the relative body weight based on the body weight on the day of administration.

[2] = Relative body weight of tumor-bearing mice, Test Example 3; type: in vivo, mouse; conditions: 90 mg/kg once i.v., female CDF1 mice
Procedure: as §1

[3] = system: Mouse colon cancer, Colon 26; assay: Antitumor action of compounds 2 and 3, subcutaneously transplanted tumor, relative tumor volume; type: in vivo; conditions: 15 mg/kg i.v. for 5 consecutive days (total 75 mg/kg), female CDF1 mice
Procedure: (§2) Mouse colon cancer, Colon 26, maintained by serial subcutaneous subculture in mice, was minced into about 2 mm-square fragments, and the fragments were transplanted subcutaneously on the dorsal part of female CDF1 mice with a trocar. […] The control group means a group to which the drug was not administered. POD, purchased from Sigma-Aldrich Company, was diluted with dimethylsulfoxide and a 5% glucose solution for injection and administered for 5 consecutive days from the administration initiation day. After the administration, the major axis (L mm) and the minor axis (W mm) of the tumor were measured using a caliper, and the tumor volume was calculated by the formula: (L×W^2)/2. […] The changes of the body weight during this period of time is also shown in Table 2 as the relative body weight based on the body weight on the day of administration.

[4] = Relative body weight of tumor-bearing mice, Test Example 4; type: in vivo, mouse; conditions: 15 mg/kg i.v. for 5 consecutive days (total 75 mg/kg), female CDF1 mice
Procedure: as §2

[5] = day 0 after administration initiation day
[6] = day 3 after administration initiation day
[7] = day 5 after administration initiation day
[8] = day 8 after administration initiation day

Row | SMILES | Relative tumor volume ([1]; day 0 after administration) | Relative tumor volume ([1]; day 4 after administration) | Relative tumor volume ([1]; day 8 after administration) | Relative body weight ([2]; day 0 after administration) | Relative body weight ([2]; day 4 after administration) | Relative body weight ([2]; day 8 after administration) | Relative tumor volume [3, 5] | Relative tumor volume [3, 6] | Relative tumor volume [3, 7] | Relative tumor volume [3, 8] | Relative body weight [4, 5] | Relative body weight [4, 6] | Relative body weight [4, 7] | Relative body weight [4, 8]
1 | COc1cc([C@@H]2c3cc4c(cc3[C@@H](O[C@@H]3O[C@@H]5CO[C@@H](C)O[C@H]5[C@H](O)[C@H]3O)[C@H]3COC(=O)[C@H]23)OCO4)cc(OC)c1O [ETP, etoposide] | 1.00 | 1.17 | 3.79 | 1.00 | 0.87 | 0.97 |  |  |  |  |  |  |  | 
2 | COc1cc([C@@H]2c3cc4c(cc3[C@H](O)[C@H]3COC(=O)[C@H]23)OCO4)cc(OC)c1OC [POD, podophyllotoxin] |  |  |  |  |  |  | 1.00 | 1.58 | 1.79 | 6.08 | 1.00 | 1.01 | 0.96 | 0.98
